From ChEMBL document CHEMBL5247581, “Design, synthesis and biological evaluation of new quinazolinone-benzopyran-indole hybrid compounds promoting osteogenesis through BMP2 upregulation” (Eur J Med Chem, 2022)
The source made the active and inactive calls. The calls are words filed in the database; no cut-off is given here.

Assays:
[1] = tested on: Calvarial osteoblast; assay: Induction of osteogenesis in mouse Osteoblast cells assessed as ALP activity at 0.001 to 100 uM measured for 24 to 48 hrs; format: functional; settings: dose 0.001-100 µM, time 24-48 hrs
[2] = tested on: Mus musculus; assay: Induction of bone formation in BALB/c mouse model assessed as mineral apposition rate at 1 to 5 mg/kg by double labelling based analysis; format: functional, organism-based; settings: dose 1-5 mg/kg
[3] = tested on: Calvarial osteoblast; assay: Induction of osteogenesis in mouse Osteoblast cells assessed as ALP activity at 100 pM measured for 24 to 48 hrs; format: functional, cell-based; settings: time 24-48 hrs
[4] = tested on: Mus musculus; assay: Induction of bone formation in BALB/c mouse model assessed as mineralizing surface per bone surface at 1 to 5 mg/kg by double labelling based analysis; format: functional, organism-based; settings: dose 1-5 mg/kg
[5] = tested on: Calvarial osteoblast; assay: Induction of osteogenesis in mouse Osteoblast cells assessed as ALP activity at 0.001 to 100 uM measured for 48 hrs; format: functional, cell-based; settings: dose 0.001-100 µM
[6] = tested on: Calvarial osteoblast; assay: Induction of osteoblast differentiation in mouse Osteoblast cells assessed as fold increase in RUNX2 expression at 100 pM by qRT-PCR analysis; format: functional
[7] = Induction of osteoblast mineralization in mouse Bone marrow cells assessed as increase in mineralized nodule formation at 10 nM replaced with media every 48 hrs for 21 days by Alizarin Red staining-based microscopic analysis; format: functional, Bone marrow cell; settings: time 21 day
[8] = tested on: Calvarial osteoblast; assay: Induction of osteoblast differentiation in mouse calvarial osteoblasts cells assessed as ALP activity at 1 to 10000 pM measured for 7 days; format: functional, cell-based; settings: dose 1-10000 pM, time 7.0 day
[9] = tested on: Calvarial osteoblast; assay: Induction of osteogenesis in mouse Osteoblast cells assessed as fold increase in RUNX2 gene expression at 1 pM by qRT-PCR analysis; format: functional
[10] = tested on: Mus musculus; assay: Induction of osteogenesis in BALB/c mouse assessed as increase in BMP2 gene expression at 5 mg/kg, ip by qRT-PCR analysis; format: functional, organism-based
[11] = Induction of osteoblast mineralization in mouse Bone marrow cells assessed as increase in mineralized nodule formation at 100 pM replaced with media every 48 hrs for 21 days by Alizarin Red staining-based microscopic analysis; format: functional, Bone marrow cell; settings: time 21 day
[12] = tested on: Calvarial osteoblast; assay: Induction of osteogenesis in mouse Osteoblast cells assessed as fold increase in BGLAP expression at 10 nM by qRT-PCR analysis; format: functional
[13] = tested on: Calvarial osteoblast; assay: Induction of osteogenesis in mouse Osteoblast cells assessed as ALP activity at 0.001 to 100 uM measured for 24 hrs; format: functional, cell-based; settings: dose 0.001-100 µM
[14] = tested on: Calvarial osteoblast; assay: Cytotoxicity against mouse Osteoblast cells assessed as reduction in cell viability at 100 uM measured for 24 to 48 hrs by MTT assay; format: toxicity, cell-based; settings: time 24-48 hrs
[15] = Upregulation of BMP2 expression in mouse Osteoblast cells assessed as fold increase in phosphorylated p38 level measured at 24 hrs by ELISA analysis; format: functional, Calvarial osteoblast
[16] = tested on: Calvarial osteoblast; assay: Induction of osteogenesis in mouse Osteoblast cells assessed as fold increase in ALP expression at 100 pM by qRT-PCR analysis; format: functional
[17] = tested on: Mus musculus; assay: Induction of bone formation in BALB/c mouse model assessed as morphological architecture at 1 mg/kg by histopathological analysis; format: functional, organism-based
[18] = tested on: Mus musculus; assay: Induction of osteogenesis in BALB/c mouse assessed as fold increase in BMP2 gene expression at 5 mg/kg, ip by qRT-PCR analysis; format: functional
[19] = tested on: Calvarial osteoblast; assay: Induction of osteogenesis in mouse Osteoblast cells assessed as fold increase in BMP2 gene expression at 100 pM by qRT-PCR analysis; format: functional
[20] = tested on: Mus musculus; assay: Induction of osteogenesis in BALB/c mouse assessed as fold increase in Col1a1 gene expression at 5 mg/kg, ip by qRT-PCR analysis; format: functional
[21] = tested on: Calvarial osteoblast; assay: Cytotoxicity against mouse Osteoblast cells assessed as reduction in cell viability at 0.000001 to 1 uM measured for 24 to 48 hrs by MTT assay; format: toxicity, cell-based; settings: dose lower 1e-06 µM, time lower 24 hrs, dose upper 1 µM, time upper 48 hrs
[22] = tested on: Mus musculus; assay: Induction of osteogenesis in BALB/c mouse assessed as increase in Col1a1 gene expression at 5 mg/kg, ip by qRT-PCR analysis; format: functional, organism-based
[23] = tested on: Mus musculus; assay: Induction of bone formation in BALB/c mouse model assessed as increase in intercortical distance at 1 mg/kg by histopathological analysis; format: functional, organism-based
[24] = tested on: Calvarial osteoblast; assay: Induction of osteoblast differentiation in mouse Osteoblast cells assessed as fold increase in BMP2 expression at 100 pM by qRT-PCR analysis; format: functional
[25] = tested on: Mus musculus; assay: Induction of bone formation in BALB/c mouse model assessed as calvarial bone formation at 1 to 5 mg/kg by double labelling based analysis; format: functional, organism-based; settings: dose 1-5 mg/kg
[26] = tested on: Mus musculus; assay: Induction of osteogenesis in BALB/c mouse assessed as increase in RUNX2 gene expression at 5 mg/kg, ip by qRT-PCR analysis; format: functional, organism-based
[27] = tested on: Mus musculus; assay: Induction of osteogenesis in BALB/c mouse assessed as fold increase in BGLAP gene expression at 5 mg/kg, ip by qRT-PCR analysis; format: functional
[28] = tested on: Calvarial osteoblast; assay: Induction of osteogenesis in mouse Osteoblast cells assessed as ALP activity at 0.001 to 1 uM measured for 48 hrs; format: functional, cell-based; settings: dose 0.001-1 µM
[29] = tested on: Mus musculus; assay: Induction of osteogenesis in BALB/c mouse assessed as increase in BGLAP gene expression at 5 mg/kg, ip by qRT-PCR analysis; format: functional, organism-based
[30] = tested on: Mus musculus; assay: Induction of bone formation in BALB/c mouse model assessed as bone formation rate/bone surface at 1 to 5 mg/kg by double labelling based analysis; format: functional, organism-based; settings: dose 1-5 mg/kg
[31] = tested on: Mus musculus; assay: Induction of osteogenesis in BALB/c mouse assessed as fold increase in RUNX2 gene expression at 5 mg/kg, ip by qRT-PCR analysis; format: functional
[32] = tested on: Calvarial osteoblast; assay: Induction of osteogenesis in mouse Osteoblast cells assessed as fold increase in BGLAP expression at 1 to 100 pM by qRT-PCR analysis; format: functional; settings: dose 1-100 pM
[33] = tested on: Calvarial osteoblast; assay: Induction of osteogenesis in mouse Osteoblast cells assessed as fold increase in mRNA expression at 1 to 10000 pM by qRT-PCR analysis; format: functional; settings: dose 1-10000 pM
[34] = tested on: Calvarial osteoblast; assay: Induction of osteogenesis in mouse Osteoblast cells assessed as ALP activity at 10 nM measured for 48 hrs; format: functional, cell-based
[35] = tested on: Calvarial osteoblast; assay: Induction of osteoblast differentiation in mouse calvarial osteoblasts cells assessed as ALP activity at 100 to 10000 pM measured for 7 days; format: functional, cell-based; settings: dose 100-10000 pM, time 7.0 day
[36] = tested on: Calvarial osteoblast; assay: Induction of osteogenesis in mouse Osteoblast cells assessed as ALP activity at 100 pM measured for 48 hrs; format: functional, cell-based
[37] = tested on: Calvarial osteoblast; assay: Induction of osteogenesis in mouse Osteoblast cells assessed as ALP activity at 10 nM measured for 24 to 48 hrs; format: functional, cell-based; settings: time 24-48 hrs
[38] = tested on: Calvarial osteoblast; assay: Induction of osteogenesis in mouse Osteoblast cells assessed as ALP activity at 1 to 1000 pM measured for 24 to 48 hrs; format: functional, cell-based; settings: dose 1-1000 pM, time 24-48 hrs

SMILES: Cc1[nH]c2ccc(Cl)cc2c1C1C(C#N)=C(N)Oc2c(C(C)C)cc(-c3nc4ccccc4c(=O)n3C)cc21 (centres undefined)
- Activity [1]: 5%

SMILES: CCn1c(-c2cc(C)c3c(c2)C(c2c(C)[nH]c4ccccc24)C(C#N)=C(N)O3)nc2ccccc2c1=O (centres undefined)
- Activity [2]: Active
- Activity [3]: Active
- Activity [4]: Active
- Activity [5]: Active
- fold change (FC) [6]: 2.7
- Activity [7]: 50%
- Activity [8]: Active
- fold change (FC) [9]: 2
- Activity [10]: Active
- Activity [11]: 30%
- fold change (FC) [12]: 4
- Activity [13]: inactive
- Activity [14]: Toxic
- fold change (FC) [15]: 1.5
- fold change (FC) [16]: 3
- Activity [17]: Active
- fold change (FC) [18]: 6
- fold change (FC) [19]: 3
- fold change (FC) [20]: 10
- Activity [21]: Non-Toxic
- Activity [22]: Active
- Activity [23]: Active
- fold change (FC) [24]: 2.3
- Activity [25]: Active
- Activity [26]: Active
- fold change (FC) [27]: 7
- Activity [28]: Active
- Activity [29]: Active
- Activity [30]: Active
- fold change (FC) [31]: 11
- Activity [1]: 50%
- fold change (FC) [32]: 2
- fold change (FC) [33]: 2

SMILES: CCn1c(-c2cc3c(c(C(C)(C)C)c2)OC(N)=C(C#N)C3c2c(C)[nH]c3ccccc23)nc2ccccc2c1=O (centres undefined)
- Activity [1]: 9%

SMILES: COc1ccc2[nH]c(C)c(C3C(C#N)=C(N)Oc4c3cc(-c3nc5ccccc5c(=O)n3C)cc4C(C)(C)C)c2c1 (centres undefined)
- Activity [34]: Active
- Activity [5]: Active
- Activity [7]: 20%
- Activity [11]: 10%
- Activity [13]: inactive
- Activity [14]: Toxic
- Activity [21]: Non-Toxic
- Activity [35]: Active
- Activity [1]: 19%

SMILES: CCCc1cc(-c2nc3ccccc3c(=O)n2C)cc2c1OC(N)=C(C#N)C2c1c(C)[nH]c2ccc(Cl)cc12 (centres undefined)
- Activity [1]: 12%

SMILES: Cc1[nH]c2ccccc2c1C1C(C#N)=C(N)Oc2c1cc(-c1nc3ccccc3c(=O)[nH]1)cc2C(C)(C)C (centres undefined)
- Activity [1]: inactive

SMILES: CCCc1cc(-c2nc3ccccc3c(=O)n2CC)cc2c1OC(N)=C(C#N)C2c1c(C)[nH]c2ccccc12 (centres undefined)
- Activity [1]: 12%

SMILES: CCc1cc(-c2nc3ccccc3c(=O)n2CC)cc2c1OC(N)=C(C#N)C2c1c(C)[nH]c2ccccc12 (centres undefined)
- Activity [36]: Active
- Activity [5]: Active
- Activity [8]: inactive
- Activity [13]: inactive
- Activity [14]: Toxic
- Activity [21]: Non-Toxic
- Activity [1]: 38%

SMILES: CCn1c(-c2cc(C)c3c(c2)C(c2c(C)n(C)c4ccccc24)C(C#N)=C(N)O3)nc2ccccc2c1=O (centres undefined)
- Activity [1]: 14%

SMILES: COc1ccc2[nH]c(C)c(C3C(C#N)=C(N)Oc4c(C(C)C)cc(-c5nc6ccccc6c(=O)n5C)cc43)c2c1 (centres undefined)
- Activity [1]: inactive

SMILES: Cc1[nH]c2ccccc2c1C1C(C#N)=C(N)Oc2c1cc(-c1nc3ccccc3c(=O)n1C)cc2C(C)(C)C (centres undefined)
- Activity [1]: inactive

SMILES: CCc1cc(-c2nc3ccccc3c(=O)n2C)cc2c1OC(N)=C(C#N)C2c1c(C)[nH]c2ccccc12 (centres undefined)
- Activity [1]: 7%

SMILES: Cc1[nH]c2ccc(Cl)cc2c1C1C(C#N)=C(N)Oc2c1cc(-c1nc3ccccc3c(=O)n1C)cc2C(C)(C)C (centres undefined)
- Activity [1]: 7%

SMILES: Cc1[nH]c2ccccc2c1C1C(C#N)=C(N)Oc2ccccc21 (centres undefined)
- Activity [37]: inactive
- Activity [1]: inactive
- Activity [38]: inactive

SMILES: CCn1c(-c2cc(C(C)C)c3c(c2)C(c2c(C)[nH]c4ccccc24)C(C#N)=C(N)O3)nc2ccccc2c1=O (centres undefined)
- Activity [1]: 6%

SMILES: CCn1c(-c2cc3c(c(C(C)(C)C)c2)OC(N)=C(C#N)C3c2c(C)[nH]c3ccc(OC)cc23)nc2ccccc2c1=O (centres undefined)
- Activity [1]: 1%
